Patent publication US20100298285A1, “Biclycloheteroaryl Compounds as P2x7 Modulators and Uses Thereof” (priority 2006, published 2010)

Tested on: IL-1β release, THP-1 cells
Assay: IL-1β release assay in differentiated THP-1 cells stimulated with BzATP (Example 9)
Type: cell-based
Details: Homo sapiens; THP-1 cells, BzATP 250 uM, four parameter logistic fit
In short: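 THP-1 cells differentiated 16 h with 100 ng/mL LPS + 100 ng/mL IFN-γ, re-primed 2 h with fresh LPS 100 ng/mL, pretreated 30 min with compound, then stimulated with BzATP 250 uM final for 45 min. Supernatant IL-1β by ELISA; background-adjusted % inhibition, IC50 from four-parameter logistic fit.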

| SMILES | IC50 [nM] |
| --- | --- |
| CCS(=O)(=O)N1CCc2c(ccc(Cl)c2NC(=O)Cc2ccc(C(F)(F)F)c(F)c2)C1 [Compound 3272] | 51.4 |
| CC(C)S(=O)(=O)N1CCc2c(ccc(Cl)c2NC(=O)Cc2ccc(C(F)(F)F)c(F)c2)C1 [Compound 3304] | 71.1 |
| O=C(Cc1cccc(C(F)(F)F)c1F)Nc1c(Cl)ccc2c1CCN(S(=O)(=O)C1CC1)C2 [Compound 3313] | 34.8 |
| CCCCS(=O)(=O)N1CCc2c(ccc(Cl)c2NC(=O)Cc2cccc(C(F)(F)F)c2F)C1 [Compound 3327] | 47.2 |
| Cc1ccc2c(c1NC(=O)Cc1ccc(C(F)(F)F)c(F)c1)CCN(S(=O)(=O)CC(F)(F)F)C2 [Compound 3406] | 107 |
| Cc1ccc2c(c1NC(=O)Cc1ccc(C(F)(F)F)c(F)c1)CCN(S(=O)(=O)C(C)C)C2 [Compound 3414] | 83 |
| CCCCS(=O)(=O)N1CCc2c(ccc(C)c2NC(=O)Cc2ccc(C(F)(F)F)c(F)c2)C1 [Compound 3448] | 65.4 |
| COc1ccc(OC)c(S(=O)(=O)N2CCc3c(ccc(C)c3NC(=O)Cc3ccc(C(F)(F)F)c(F)c3)C2)c1 [Compound 3452] | 27.9 |
| Cc1ccc2c(c1NC(=O)Cc1ccc(C(F)(F)F)c(F)c1)CCN(C(=O)C(C)(C)CO)C2 [Compound 3472] | 203 |
| Cc1ccc2c(c1NC(=O)Cc1ccc(C(F)(F)F)c(F)c1)CCN(C(=O)C1CCC1)C2 [Compound 3473] | 23.8 |
| COc1ccc2c(c1NC(=O)Cc1ccc(C(F)(F)F)c(F)c1)CCN(C(=O)C(C)(C)C)C2 [Compound 3474, N-[2-(2,2-Dimethyl-propionyl)-6-methoxy-1,2,3,4-tetrahydro-isoquinolin-5-yl]-2-(3-fluoro-4-trifluoromethyl-phenyl)-acetamide] | 201 |
| COc1ccc2c(c1NC(=O)Cc1ccc(C(F)(F)F)c(F)c1)CCN(C(=O)C1CC1)C2 [Compound 3475] | 243 |
| COc1ccc2c(c1NC(=O)Cc1ccc(C(F)(F)F)c(F)c1)CCN(C(=O)C1(O)CC1)C2 [Compound 3476, 2-(3-Fluoro-4-trifluoromethyl-phenyl)-N-[2-(1-hydroxy-cyclopropanecarbonyl)-6-methoxy-1,2,3,4-tetrahydro-isoquinolin-5-yl]-acetamide] | 325 |
| COc1ccc2c(c1NC(=O)Cc1ccc(C(F)(F)F)c(F)c1)CCN(C(=O)C1(O)CCCCC1)C2 [Compound 3477, 2-(3-Fluoro-4-trifluoromethyl-phenyl)-N-[2-(1-hydroxy-cyclohexanecarbonyl)-6-methoxy-1,2,3,4-tetrahydro-isoquinolin-5-yl]-acetamide] | 280 |
| COc1ccc2c(c1NC(=O)Cc1ccc(C(F)(F)F)c(F)c1)CCN(C(=O)CC1(O)CCCC(C)(C)C1)C2 (stereo not shown) [Compound 3478, 2-(3-Fluoro-4-trifluoromethyl-phenyl)-N-{2-[2-(1-hydroxy-3,3-dimethyl-cyclohexyl)-acetyl]-6-methoxy-1,2,3,4-tetrahydro-isoquinolin-5-yl}-acetamide] | 192 |
| COc1ccc2c(c1NC(=O)Cc1ccc(C(F)(F)F)c(F)c1)CCN(C(=O)C(C)(C)CO)C2 [Compound 3479, 2-(3-Fluoro-4-trifluoromethyl-phenyl)-N-[2-(3-hydroxy-2,2-dimethyl-propionyl)-6-methoxy-1,2,3,4-tetrahydro-isoquinolin-5-yl]-acetamide] | 171 |
| Cc1ccc2c(c1NC(=O)Cc1ccc(C(F)(F)F)c(F)c1)CCN(C(=O)[C@H]1CCN1)C2 [Compound 3480] | 74.9 |
| COc1ccc2c(c1NC(=O)Cc1ccc(C(F)(F)F)c(F)c1)CCN(C(=O)C(C)(C)O)C2 [Compound 3481] | 926 |
| CC(C)(C)C(=O)N1CCc2c(ccc(C3CC3)c2NC(=O)Cc2ccc(C(F)(F)F)c(F)c2)C1 [Compound 3482] | 165 |

Next, values leading:

| IC50 [nM] | SMILES |
| --- | --- |
| 425 | O=C(Cc1ccc(C(F)(F)F)c(F)c1)Nc1cccc2c1CCN(CC(O)Cc1ccccc1)C2 (stereo not shown) [Compound 3257] |
| 60.7 | O=C(Cc1ccc(C(F)(F)F)c(F)c1)Nc1c(Cl)ccc2c1CCN(S(=O)(=O)c1ccccc1Cl)C2 [Compound 3287] |
| 78.5 | Cc1ccc2c(c1NC(=O)Cc1ccc(C(F)(F)F)c(F)c1)CCN(S(=O)(=O)c1c(F)cccc1F)C2 [Compound 3425] |
| 25.2 | CCS(=O)(=O)N1CCc2c(ccc(C)c2NC(=O)Cc2ccc(C(F)(F)F)c(F)c2)C1 [Compound 3433] |
| 41.3 | Cc1ccc2c(c1NC(=O)Cc1ccc(C(F)(F)F)c(F)c1)CCN(S(=O)(=O)c1ccccc1F)C2 [Compound 3460] |
| 69.8 | Cc1ccc2c(c1NC(=O)Cc1ccc(C(F)(F)F)c(F)c1)CCN(C(=O)C1(O)CC1)C2 [Compound 3468] |
| 52.5 | Cc1ccc2c(c1NC(=O)Cc1ccc(C(F)(F)F)c(F)c1)CCN(C(=O)C1CC1)C2 [Compound 3469] |
| 32.2 | Cc1ccc2c(c1NC(=O)Cc1ccc(C(F)(F)F)c(F)c1)CCN(C(=O)C(C)(C)O)C2 [Compound 3470] |
| 261 | Cc1ccc2c(c1NC(=O)Cc1ccc(C(F)(F)F)c(F)c1)CCN(C(=O)C1(C)CC1)C2 [Compound 3471] |
